Reference: US20260125346A1, “Isoquinolinone Derivatives and 4H-Quinolizinone Derivatives and Pharmaceutical Compositions Thereof for the Treatment of Disease” (BeOne Medicines I GmbH, priority 2023, published 2026)

How the values were obtained:
[1] = test system: PI3Kα H1047R mutated cell line T-47D; experiment: Phospho-AKT (Ser473) Inhibition Assay (HTRF), T-47D; assay type: cell-based; settings: for IC50: Homo sapiens, T47D, T-47D, 1 hour treatment, read-out: p-AKT Inhibition assay (S473) IC50 T-47D; for Selectivity: SK-BR-3/T-47D (p-AKT): p-AKT (S473) IC50 ratio
Procedure, shortened: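 Cells seeded overnight in insulin-supplemented MEM, then treated 1 h with 11-point 1:3 compound dilutions (10 μM to 0.1 nM final, 0.1% DMSO). Lysates assayed for phospho-AKT Ser473 by HTRF; IC50 from 4-parameter logistic fit, normalised to DMSO (max) and 10 μM GDC0077 (min).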

[2] = test system: WT cell line SK-BR-3; experiment: Phospho-AKT (Ser473) Inhibition Assay (HTRF), SK-BR-3; assay type: cell-based; settings: Homo sapiens; SK-BR-3, 1 hour treatment; read-out: p-AKT Inhibition assay (S473) IC50 SK-BR-3
Procedure, shortened: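 SK-BR-3 (PI3Kα WT) cells seeded overnight in MEM with insulin, then treated 1 h with 11-point 1:3 dilutions (10 μM to 0.1 nM, 0.1% DMSO). Lysates read for phospho-AKT Ser473 by HTRF after 4 h antibody incubation at room temperature. IC50 from 4-parameter fit, % inhibition normalized to DMSO (max) and 10 μM GDC0077 (min).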

IC50 [1]	IC50 [2]	Structure (SMILES)	Selectivity: SK-BR-3/T-47D (p-AKT) [1]
0.33 µM	9.52 µM	Cc1cc(C(C)Nc2ccccc2C(=O)O)c2cc(-c3ccc(F)cc3)n(C3CCOCC3)c(=O)c2c1 (stereo not drawn) [Example 96, 2-((1-(3-(4-fluorophenyl)-7-methyl-1-oxo-2-(tetrahydro-2H-pyran-4-yl)-1,2-dihydroisoquinolin-5-yl)ethyl)amino)benzoic acid]	28.8
> 10 µM	> 10 µM	Cc1cc(C(C)Nc2ccccc2C(=O)O)c2cc(-c3ccc(P(C)(C)=O)cc3)n(C)c(=O)c2c1 (stereo not drawn) [Example 79, 2-((1-(3-(4-(dimethylphosphoryl)phenyl)-2,7-dimethyl-1-oxo-1,2-dihydroisoquinolin-5-yl)ethyl)amino)benzoic acid]	–
1.56 µM	> 10 µM	Cc1cc(C(C)Nc2ccccc2C(=O)O)c2cc(-c3ccc(C(C)(C)O)nc3)n(C)c(=O)c2c1 (stereo not drawn) [Example 55, 2-((1-(3-(6-(2-hydroxypropan-2-yl)pyridin-3-yl)-2,7-dimethyl-1-oxo-1,2-dihydroisoquinolin-5-yl)ethyl)amino)benzoic acid]	>6.4
0.0588 µM	0.795 µM	Cc1cc(C(C)Nc2ccccc2C(=O)O)c2cc(-c3nc4ccccc4s3)n(C)c(=O)c2c1 (stereo not drawn) [Example 17, 2-((1-(3-(benzo[d]thiazol-2-yl)-2,7-dimethyl-1-oxo-1,2-dihydroisoquinolin-5-yl)ethyl)amino)benzoic acid]	13.5
0.0639 µM	2.82 µM	Cc1cc(C(C)Nc2ccccc2C(=O)O)c2cc(C3=Cc4ccccc4CC3)n(C)c(=O)c2c1 (stereo not drawn) [Example 45, 2-((1-(3-(3,4-dihydronaphthalen-2-yl)-2,7-dimethyl-1-oxo-1,2-dihydroisoquinolin-5-yl)ethyl)amino)benzoic acid]	44.0
0.264 µM	> 10 µM	Cc1cc(C(C)Nc2ccccc2C(=O)O)c2cc(-c3ccccc3C#N)n(C)c(=O)c2c1 (stereo not drawn) [Example 32, 2-((1-(3-(2-cyanophenyl)-2,7-dimethyl-1-oxo-1,2-dihydroisoquinolin-5-yl)ethyl)amino)benzoic acid]	>38
0.512 µM	> 10 µM	Cc1cc([C@@H](C)Nc2ccccc2C(=O)O)c2cc(-c3ccc(C(C)(C)O)nc3)n(C)c(=O)c2c1 [Example 56, (R)-2-((1-(3-(6-(2-hydroxypropan-2-yl)pyridin-3-yl)-2,7-dimethyl-1-oxo-1,2-dihydroisoquinolin-5-yl)ethyl)amino)benzoic acid]	>19.55
1.95 µM	> 10 µM	Cc1cc(C(C)Nc2ccccc2C(=O)O)c2cc(-c3ccc(CN4CCOCC4)nc3)n(C)c(=O)c2c1 (stereo not drawn) [Example 78, 2-((1-(2,7-dimethyl-3-(6-(morpholinomethyl)pyridin-3-yl)-1-oxo-1,2-dihydroisoquinolin-5-yl)ethyl)amino)benzoic acid]	>5.12
0.168 µM	4.35 µM	Cc1cc(C(C)Nc2ccccc2C(=O)O)c2cc(-c3cccc(C#N)c3)n(C)c(=O)c2c1 (stereo not drawn) [Example 3, 2-((1-(3-(3-cyanophenyl)-2,7-dimethyl-1-oxo-1,2-dihydroisoquinolin-5-yl)ethyl)amino)benzoic acid]	26.0

Further lines, the compound ahead of its results:

Structure (SMILES)	IC50 [1]	IC50 [2]	Selectivity: SK-BR-3/T-47D (p-AKT) [1]
Cc1cc([C@H](C)Nc2ccccc2C(=O)O)c2cc(-c3ccc(F)cc3)n(C)c(=O)c2c1 [Example 35, (S)-2-((1-(3-(4-fluorophenyl)-2,7-dimethyl-1-oxo-1,2-dihydroisoquinolin-5-yl)ethyl)amino)benzoic acid]	> 10 µM	> 10 µM	–
Cc1cc(C(C)Nc2ccccc2C(=O)O)c2cc(C#CC3(O)CCCC3)n(C)c(=O)c2c1 (stereo not drawn) [Example 89, 2-((1-(3-((1-hydroxycyclopentyl)ethynyl)-2,7-dimethyl-1-oxo-1,2-dihydroisoquinolin-5-yl)ethyl)amino)benzoic acid]	0.184 µM	6.84 µM	37.2
COc1ncc(-c2cc3c([C@@H](C)Nc4ccccc4C(=O)O)cc(C)cc3c(=O)n2C)cc1F [Example 59, (R)-2-((1-(3-(5-fluoro-6-methoxypyridin-3-yl)-2,7-dimethyl-1-oxo-1,2-dihydroisoquinolin-5-yl)ethyl)amino)benzoic acid]	0.0815 µM	> 10 µM	>123
Cc1cc([C@@H](C)Nc2ccccc2C(=O)O)c2cc(-c3ccc(-c4cnn(C)c4)cc3)n(C)c(=O)c2c1 [Example 40, (R)-2-((1-(2,7-dimethyl-3-(4-(1-methyl-1H-pyrazol-4-yl)phenyl)-1-oxo-1,2-dihydroisoquinolin-5-yl)ethyl)amino)benzoic acid]	0.0243 µM	0.814 µM	33.5
Cc1cc([C@@H](C)Nc2ccccc2C(=O)O)c2cc(-c3ccc(F)cc3)n(CC#N)c(=O)c2c1 [Example 64, (R)-2-((1-(2-(cyanomethyl)-3-(4-fluorophenyl)-7-methyl-1-oxo-1,2-dihydroisoquinolin-5-yl)ethyl)amino)benzoic acid]	0.0324 µM	> 10 µM	>308
COc1ccc(-c2cc3c(C(C)Nc4ccccc4C(=O)O)cc(C)cc3c(=O)n2C)cn1 (stereo not drawn) [Example 15, 2-((1-(3-(6-methoxypyridin-3-yl)-2,7-dimethyl-1-oxo-1,2-dihydroisoquinolin-5-yl)ethyl)amino)benzoic acid]	0.217 µM	8.36 µM	38.5
CCn1c(-c2ccc(F)cc2)cc2c(C(C)Nc3ccc(Cl)nc3C(=O)O)cc(C)cc2c1=O (stereo not drawn) [Example 81, 6-chloro-3-((1-(2-ethyl-3-(4-fluorophenyl)-7-methyl-1-oxo-1,2-dihydroisoquinolin-5-yl)ethyl)amino)picolinic acid]	0.0409 µM	1.87 µM	45.6
Cc1cc(C(C)Nc2ccccc2C(=O)O)c2cc(-c3ccc(F)c(F)c3)n(C)c(=O)c2c1 (stereo not drawn) [Example 9, 2-((1-(3-(3,4-difluorophenyl)-2,7-dimethyl-1-oxo-1,2-dihydroisoquinolin-5-yl)ethyl)amino)benzoic acid]	0.0709 µM	3.64 µM	51.4
Cc1cc(C(C)Nc2ccccc2C(=O)O)c2cc(/C=C/c3ccccc3)n(C)c(=O)c2c1 (stereo not drawn) [Example 44, (E)-2-((1-(2,7-dimethyl-1-oxo-3-styryl-1,2-dihydroisoquinolin-5-yl)ethyl)amino)benzoic acid]	0.559 µM	2.13 µM	3.8
Cc1cc(C(C)Nc2ccncc2C(=O)O)c2cc(-c3ccc(F)cc3)n(C)c(=O)c2c1 (stereo not drawn) [Example 97, 4-((1-(3-(4-fluorophenyl)-2,7-dimethyl-1-oxo-1,2-dihydroisoquinolin-5-yl)ethyl)amino)nicotinic acid]	> 10 µM	> 10 µM	–
Cc1cc(C(C)Nc2ccccc2C(=O)O)c2cc(-c3ccccc3)n(C)c(=O)c2c1 (stereo not drawn) [Example 1, 2-((1-(2,7-dimethyl-1-oxo-3-phenyl-1,2-dihydroisoquinolin-5-yl)ethyl)amino)benzoic acid]	0.0435 µM	2.11 µM	48.6
Cc1cc(C(C)Nc2ccccc2C(=O)O)c2cc(-c3ccccn3)n(C)c(=O)c2c1 (stereo not drawn) [Example 36, 2-((1-(2,7-dimethyl-1-oxo-3-(pyridin-2-yl)-1,2-dihydroisoquinolin-5-yl)ethyl)amino)benzoic acid]	0.467 µM	> 10 µM	>21
Cc1cc([C@@H](C)Nc2ccccc2C(=O)O)c2cc(-c3ccccc3)n(C)c(=O)c2c1 [Example 30, (R)-2-((1-(2,7-dimethyl-1-oxo-3-phenyl-1,2-dihydroisoquinolin-5-yl)ethyl)amino)benzoic acid]	0.022 µM	2.5 µM	113.7
Cc1cc(C(C)Nc2ccccc2C(=O)O)c2cc(-c3ccc4nc(C)sc4c3)n(C)c(=O)c2c1 (stereo not drawn) [Example 18, 2-((1-(2,7-dimethyl-3-(2-methylbenzo[d]thiazol-6-yl)-1-oxo-1,2-dihydroisoquinolin-5-yl)ethyl)amino)benzoic acid]	0.0851 µM	2.32 µM	27.3
Cc1cc(C(C)Nc2ccccc2C(=O)O)c2cc(-c3cccc(C(C)(C)C#N)c3)n(C)c(=O)c2c1 (stereo not drawn) [Example 5, 2-((1-(3-(3-(2-cyanopropan-2-yl)phenyl)-2,7-dimethyl-1-oxo-1,2-dihydroisoquinolin-5-yl)ethyl)amino)benzoic acid]	0.135 µM	4.62 µM	34.3
Cc1cc(C(C)Nc2ccccc2C(=O)O)c2cc(-c3cccc(F)c3)n(C)c(=O)c2c1 (stereo not drawn) [Example 7, 2-((1-(3-(3-fluorophenyl)-2,7-dimethyl-1-oxo-1,2-dihydroisoquinolin-5-yl)ethyl)amino)benzoic acid]	0.0539 µM	1.86 µM	34.5
Cc1cc(C(C)Nc2ccccc2C(=O)O)c2cc(-c3ccc(C(F)(F)F)cc3)n(C)c(=O)c2c1 (stereo not drawn) [Example 49, 2-((1-(2,7-dimethyl-1-oxo-3-(4-(trifluoromethyl)phenyl)-1,2-dihydroisoquinolin-5-yl)ethyl)amino)benzoic acid]	0.0892 µM	4.52 µM	50.7
